In brackets after ≈: the same amount, converted by molar mass. Read-outs that look alike come from different tables or passages of the source.
Assays:
Assay in all cases: minimal inhibitory concentration in Sabouraud medium
Format in all cases: cell-based
[1] = system: Saccharomyces cerevisiae OKI.1282; conditions: Saccharomyces cerevisiae
From the text: Saccharomyces cerevisiae OKI.1282
(§1) As a medium Saboroud medium was employed.

Candida albicans CBS.562 = conditions: Candida albicans
From the text: Candida albicans CBS.562 "2"
as §1

[2] = system: Aspergillus niger CBS.12648; conditions: Aspergillus niger
From the text: Aspergillus niger CBS.12648
as §1

[3] = system: Penicillium digitatum CBS.31948; conditions: Penicillium digitatum
From the text: Penicillium digitatum CBS.31948
as §1

[4] = system: Sporotrichum schenkii CBS.34035; conditions: Sporotrichum
From the text: Sporotrichum schenkii CBS.34035
as §1

[5] = system: Trichophyton rubrum CBS.30338; conditions: Trichophyton rubrum
From the text: Trichophyton rubrum CBS.30338
as §1

[6] = system: Trichophyton mentagrophytes CBS.50148; conditions: Trichophyton mentagrophytes, read-out: minimal inhibitory concentration
From the text: Trichophyton mentagrophytes CBS.50148
as §1

[7] = system: Epidermophyton floccosum OKI/IV.; conditions: Epidermophyton floccosum, read-out: minimal inhibitory concentration
From the text: Epidermophyton floccosum OKI/IV.
as §1

| Compound | MIC ([1]; OKI.1282, 24 h, 24 hours) [µg/mL] | MIC ([1]; OKI.1282, 48 h, 48 hours) [µg/mL] | MIC (Candida albicans CBS.562; CBS.562, 24 h, 24 hours) [µg/mL] | MIC (Candida albicans CBS.562; CBS.562, 48 h, 48 hours) [µg/mL] | MIC ([2]; CBS.12648, 72 h, 72 hours) [µg/mL] | MIC ([2]; CBS.12648, 144 h, 144 hours) [µg/mL] | MIC ([2]; CBS.12648, 288 h, 288 hours) [µg/mL] | MIC ([3]; CBS.31948, 72 h, 72 hours) [µg/mL] | MIC ([3]; CBS.31948, 144 h, 144 hours) [µg/mL] | MIC ([3]; CBS.31948, 288 h, 288 hours) [µg/mL] | MIC ([4]; CBS.34035, 72 h, 72 hours) [µg/mL] | MIC ([4]; CBS.34035, 144 h, 144 hours) [µg/mL] | MIC ([4]; CBS.34035, 288 h, 288 hours) [µg/mL] | MIC ([5]; CBS.30338, 72 h, 72 hours) [µg/mL] | MIC ([5]; CBS.30338, 144 h, 144 hours) [µg/mL] | MIC ([5]; CBS.30338, 288 h, 288 hours) [µg/mL] | MIC ([6]; CBS.50148, 72 h, 72 hours) [µg/mL] | MIC ([6]; CBS.50148, 144 h, 144 hours) [µg/mL] | MIC ([6]; CBS.50148, 288 h, 288 hours) [µg/mL] | MIC ([7]; 72 h) [µg/mL] | other results |
| --- | --- | --- | --- | --- | --- | --- | --- | --- | --- | --- | --- | --- | --- | --- | --- | --- | --- | --- | --- | --- | --- |
| O=C1CC(S(=O)(=O)C2CCCCC2)C(=O)N1c1cccc([N+](=O)[O-])c1 (stereo not drawn) [1-(3-nitrophenyl)-3-cyclohexyl-sulfonyl-pyrrolidine-2,5-dione] | 75 (≈ 205 µM) | 75 (≈ 205 µM) | 50 (≈ 136 µM) | 100 (≈ 273 µM) | 75 (≈ 205 µM) | 150 (≈ 409 µM) | 150 (≈ 409 µM) | 25 (≈ 68.2 µM) | 50 (≈ 136 µM) | 50 (≈ 136 µM) | 25 (≈ 68.2 µM) | 75 (≈ 205 µM) | 75 (≈ 205 µM) | 5 (≈ 13.6 µM) | 5 (≈ 13.6 µM) | 5 (≈ 13.6 µM) | 2.5 (≈ 6.82 µM) | 5 (≈ 13.6 µM) | 25 (≈ 68.2 µM) | 5 (≈ 13.6 µM) | MIC ([7]; 144 h): 10 µg/mL (≈ 27.3 µM); MIC ([7]; 288 h): 10 µg/mL (≈ 27.3 µM) |
| O=C1CC(S(=O)(=O)C2CCCCC2)C(=O)N1c1ccccc1Cl (stereo not drawn) [1-(2-chlorophenyl)-3-cyclohexyl-sulfonyl-pyrrolidine-2,5-dione] | 25 (≈ 70.3 µM) | 75 (≈ 211 µM) | 50 (≈ 141 µM) | 50 (≈ 141 µM) | 50 (≈ 141 µM) | 150 (≈ 422 µM) | 150 (≈ 422 µM) | 25 (≈ 70.3 µM) | 50 (≈ 141 µM) | 50 (≈ 141 µM) | 10 (≈ 28.1 µM) | 50 (≈ 141 µM) | 50 (≈ 141 µM) | 2.5 (≈ 7.03 µM) | 10 (≈ 28.1 µM) | 10 (≈ 28.1 µM) | 2.5 (≈ 7.03 µM) | 5 (≈ 14.1 µM) | 5 (≈ 14.1 µM) | 2.5 (≈ 7.03 µM) | MIC ([7]; 144 h): 5 µg/mL (≈ 14.1 µM); MIC ([7]; 288 h): 10 µg/mL (≈ 28.1 µM) |
| O=C1CC(S(=O)(=O)C2CCCCC2)C(=O)N1c1ccccc1[N+](=O)[O-] (stereo not drawn) [1-(o-nitrophenyl)-3-cyclohexyl-sulfonyl-pyrrolidine-2,5-dione] | 100 (≈ 273 µM) | 200 (≈ 546 µM) | 75 (≈ 205 µM) | 150 (≈ 409 µM) | 150 (≈ 409 µM) | 200 (≈ 546 µM) | 200 (≈ 546 µM) | 25 (≈ 68.2 µM) | 50 (≈ 136 µM) | 50 (≈ 136 µM) | 10 (≈ 27.3 µM) | 50 (≈ 136 µM) | 50 (≈ 136 µM) | 50 (≈ 136 µM) | 50 (≈ 136 µM) | 75 (≈ 205 µM) | 75 (≈ 205 µM) | 150 (≈ 409 µM) | 150 (≈ 409 µM) | 75 (≈ 205 µM) | MIC ([7]; 144 h): 100 µg/mL (≈ 273 µM); MIC ([7]; 288 h): 150 µg/mL (≈ 409 µM) |

More lines, in order of falling MIC ([1]; OKI.1282, 24 h, 24 hours), values ahead:

| MIC ([1]; OKI.1282, 24 h, 24 hours) [µg/mL] | MIC ([1]; OKI.1282, 48 h, 48 hours) [µg/mL] | MIC (Candida albicans CBS.562; CBS.562, 24 h, 24 hours) [µg/mL] | MIC (Candida albicans CBS.562; CBS.562, 48 h, 48 hours) [µg/mL] | MIC ([2]; CBS.12648, 72 h, 72 hours) [µg/mL] | MIC ([2]; CBS.12648, 144 h, 144 hours) [µg/mL] | MIC ([2]; CBS.12648, 288 h, 288 hours) [µg/mL] | MIC ([3]; CBS.31948, 72 h, 72 hours) [µg/mL] | MIC ([3]; CBS.31948, 144 h, 144 hours) [µg/mL] | MIC ([3]; CBS.31948, 288 h, 288 hours) [µg/mL] | MIC ([4]; CBS.34035, 72 h, 72 hours) [µg/mL] | MIC ([4]; CBS.34035, 144 h, 144 hours) [µg/mL] | MIC ([4]; CBS.34035, 288 h, 288 hours) [µg/mL] | MIC ([5]; CBS.30338, 72 h, 72 hours) [µg/mL] | MIC ([5]; CBS.30338, 144 h, 144 hours) [µg/mL] | MIC ([5]; CBS.30338, 288 h, 288 hours) [µg/mL] | MIC ([6]; CBS.50148, 72 h, 72 hours) [µg/mL] | MIC ([6]; CBS.50148, 144 h, 144 hours) [µg/mL] | MIC ([6]; CBS.50148, 288 h, 288 hours) [µg/mL] | MIC ([7]; 72 h) [µg/mL] | Compound | other results |
| --- | --- | --- | --- | --- | --- | --- | --- | --- | --- | --- | --- | --- | --- | --- | --- | --- | --- | --- | --- | --- | --- |
| 25 (≈ 68.2 µM) | 50 (≈ 136 µM) | 75 (≈ 205 µM) | 150 (≈ 409 µM) | 75 (≈ 205 µM) | 150 (≈ 409 µM) | 150 (≈ 409 µM) | 100 (≈ 273 µM) | 150 (≈ 409 µM) | 150 (≈ 409 µM) | 25 (≈ 68.2 µM) | 25 (≈ 68.2 µM) | 25 (≈ 68.2 µM) | 75 (≈ 205 µM) | 75 (≈ 205 µM) | 150 (≈ 409 µM) | 75 (≈ 205 µM) | 100 (≈ 273 µM) | 100 (≈ 273 µM) | 100 (≈ 273 µM) | O=C1CC(S(=O)(=O)C2CCCCC2)C(=O)N1c1ccc([N+](=O)[O-])cc1 (stereo not drawn) [1-(p-nitrophenyl)-3-cyclohexylsulfonyl-pyrrolidine-2,5-dione] | MIC ([7]; 144 h): 150 µg/mL (≈ 409 µM); MIC ([7]; 288 h): 150 µg/mL (≈ 409 µM) |
| 25 (≈ 68.8 µM) | 50 (≈ 138 µM) | 50 (≈ 138 µM) | 75 (≈ 206 µM) | 75 (≈ 206 µM) | 150 (≈ 413 µM) | 150 (≈ 413 µM) | 75 (≈ 206 µM) | 100 (≈ 275 µM) | 150 (≈ 413 µM) | 5 (≈ 13.8 µM) | 25 (≈ 68.8 µM) | 25 (≈ 68.8 µM) | 10 (≈ 27.5 µM) | 25 (≈ 68.8 µM) | 50 (≈ 138 µM) | 10 (≈ 27.5 µM) | 25 (≈ 68.8 µM) | 25 (≈ 68.8 µM) | 25 (≈ 68.8 µM) | CC(=O)c1ccc(N2C(=O)CC(S(=O)(=O)C3CCCCC3)C2=O)cc1 (stereo not drawn) [1-(4-acetylphenyl)-3-cyclohexyl-sulfonyl-pyrrolidine-2,5-dione] | MIC ([7]; 144 h): 50 µg/mL (≈ 138 µM); MIC ([7]; 288 h): 75 µg/mL (≈ 206 µM) |
| 10 (≈ 28.1 µM) | 25 (≈ 70.3 µM) | 25 (≈ 70.3 µM) | 75 (≈ 211 µM) | 50 (≈ 141 µM) | 100 (≈ 281 µM) | 100 (≈ 281 µM) | 10 (≈ 28.1 µM) | 50 (≈ 141 µM) | 50 (≈ 141 µM) | 10 (≈ 28.1 µM) | 25 (≈ 70.3 µM) | 25 (≈ 70.3 µM) | 2.5 (≈ 7.03 µM) | 2.5 (≈ 7.03 µM) | 2.5 (≈ 7.03 µM) | 2.5 (≈ 7.03 µM) | 2.5 (≈ 7.03 µM) | 2.5 (≈ 7.03 µM) | 2.5 (≈ 7.03 µM) | O=C1CC(S(=O)(=O)C2CCCCC2)C(=O)N1c1cccc(Cl)c1 (stereo not drawn) [1-(m-chlorphenyl)-3-cyclohexylsulfonyl-pyrrolidine-2,5-dione] | MIC ([7]; 144 h): 5 µg/mL (≈ 14.1 µM); MIC ([7]; 288 h): 10 µg/mL (≈ 28.1 µM) |
